# Laboratory results published in patent US20230357134A1, “AGENTS FOR USE IN THE TREATMENT OF AMYLOIDOSIS” (UCL BUSINESS LTD, priority 2020, published 2023).
# Tests used:
# isolated wild type TTR = target: T1, isolated wild type TTR (Homo sapiens, UniProt P02766); test: Displacement of 125I-T4 from isolated wild type TTR in buffer; conditions: concentration of ligand reducing binding of 125I-T4 by TTR by 50%; 125 nM TTR, pH 8.0, overnight 4° C.; mean of at least 3 replicates; read-out: D50 buffer
# T1 construct: the non-covalently associated protomers, of mass 13,761, each contain 127 residues; His6 (N); TEV cleavage site (N); made in house; host or cells: E. coli BL21 (DE3)
# Experimental: 3. Evaluation of Ligand Activity Based on Capacity to Displace ^125I-Thyroxine (T4) from TTR in Buffer/Human Plasma 3.1 Displacement of ^125I-T4 from Isolated Wild Type TR.
# Competition of ligands with T4 for binding by TTR was assayed quantitatively by a previously described procedure (Kolstoe et al., 2010). Briefly, a solution of 125 nM TTR in 0.1 M Tris-HCl, 0.1 M NaCl and 0.001 M EDTA buffer, pH 8.0, was incubated overnight at 4° C. in the presence of 1.07 nM ^125I T4 (1,200 μCi/μg, 200 μCi/ml, Perkin Elmer) and increasing concentrations of inhibitor (0-5 μM) in 40 μl final volume. ^125I T4 bound by TTR was separated from unbound T4 by gel filtration chromatography using Micro Bio Spin 6 columns (Bio-Rad) previously equilibrated with the reaction buffer containing 1% w/v BSA. After counting with a Wizard2 gamma counter (Perkin-Elmer) for 60 s, percentage binding was plotted against the logarithm of the inhibitor concentration, and D50 (concentration of ligand reducing the binding of T4 by TTR by 50%) was determined using a four parameters dose-response curve with GraphPad Prism 5 (Table 1).
# [1] = target: T2, TTR in whole human plasma (Homo sapiens, UniProt P02766); test: Displacement of 125I-T4 from TTR in normal human plasma; type: binding; conditions: wild type TTR, 30 min 37° C. with ligand, immunoprecipitation, mean of at least 3 replicates; for IC50: read-out: D50 plasma
# T2 construct: TTR in whole plasma, from individuals homozygous for wild type TTR; from tissue; host or cells: whole human plasma
# Experimental: 3.2 Displacement of ^125-T4 from TTR in Normal Human Plasma.
# The displacement of ^125I-T4 from TTR in whole plasma, from individuals homozygous for wild type TTR, was studied by incubating plasma with each ligand at increasing concentrations for 30 min at 37° C., further incubation with […] followed by measurement of the radioactivity in the immunoprecipitate obtained with anti-TTR antibodies. […] Percentage binding was plotted against the logarithm of the inhibitor concentration, and D50 (concentration of ligand reducing the binding of T4 by TTR by 50%) was determined using a four parameter dose-response curve with GraphPad Prism 5 (Table 1).
# [2] = target: T3, recombinant Val122Ile TTR (Homo sapiens, UniProt P02766, V142I); test: Mechano-enzymatic fibrillogenesis, TTR aggregation by turbidity at 400 nm; type: biochemical; conditions: equimolar ligand, Val122Ile TTR 9 μM, trypsin, 96 h; 100 % = protein without ligand; mean (SD)
# T3 construct: the non-covalently associated protomers, of mass 13,761, each contain 127 residues; His6 (N); TEV cleavage site (N); made in house; host or cells: E. coli BL21 (DE3)
# Experimental: (§1) Briefly, fibrillogenesis of recombinant Val122Ile TTR at 0.5 mg/ml (9 μM) in PBS, pH 7.4 was carried out in glass vials stirred at 1,400 rpm (IKA magnetic stirrer) and 37° C. in the presence and in the absence of trypsin (5 ng/μl). […] Each ligand was tested at 4 different concentrations (4.5, 9, 18, 36 μM respectively) corresponding to the following drug/TTR molar ratios of 0.5:1, 1:1, 2:1 and 4:1. Several dilutions of the drug stock solutions were made in order to add the same volume of DMSO to each sample. Control samples without drug were added with the same volume of DMSO only. To allow complete binding of ligand by TTR each sample was incubated for 30 min at 37° C. before addition of trypsin. Spectrophotometric turbidity at 400 nm was used to monitor fibril formation over time until it reached a plateau at 96 h. Aggregation of TTR in the presence of equimolar ligand concentrations was quantified as spectrophotometric turbidity at 400 nm as a proportion of 100% for aggregation of the protein in the absence of ligands (Table 2).
# [3] = target: T3, recombinant Val122Ile TTR; test: Mechano-enzymatic fibrillogenesis, TTR amyloid by ThT emission fluorescence; type: biochemical; conditions: equimolar ligand, 96 h pellets, normalized to 100 % without ligand, mean (SD)
# Experimental: as §1
# At the end of the 96 h aggregation, pellets were harvested from each protein sample by 20 min centrifugation at 11,600 g, thoroughly rinsed with PBS to remove non-bound ligand, resuspended with 100 μl PBS, pH 7.4 containing 10 μM ThT in Costar 96-well black-wall plates. Bottom fluorescence values (excitation 440 nm, emission 480 nm) were recorded using a BMG LABTECH FLUostar Omega plate reader. Each value was normalized to the ThT signal of the TTR sample without ligand (Table 2)
# [4] = target: T4, native recombinant wild type TTR (Homo sapiens, UniProt P02766); test: Kinetics of ligand binding by TTR (stopped flow quenching of intrinsic fluorescence); conditions: TTR 1 μM with equimolar ligand, 37° C., PBS pH 7.4; t½ = ln 2/k
# T4 construct: the non-covalently associated protomers, of mass 13,761, each contain 127 residues; His6 (N); TEV cleavage site (N); made in house; host or cells: E. coli BL21 (DE3)
# Experimental: Ligand binding by native TTR quenches the intrinsic fluorescence of the protein. After mixing of ligands with TTR in solution, monitoring emission of the intrinsic fluorescence over time defines the rate at which the ligand is bound by the protein. The fast phase of these binding kinetics was characterized using an SFM 3000 stopped flow device coupled to a MOS500 spectrometer with a fluorescence detection system (Bio Logic, Claix, France) and a cell path length of 1.5 mm. TTR and ligands at 37° C. were mixed at final concentrations of 1 μM each in PBS pH 7.4 containing 0.9% v/v DMSO, and were excited at 280 nm for measurement of total fluorescence emission over 325 nm using a cut off filter. Kinetic data were acquired as the average of at least 3 experimental mixings and fitted to a first order reaction using the general formula y(t)=at +b+C exp (−kt), where y(t) is the observed fluorescence, a (slope) and b (offset) corresponding to the baseline. C and k are, respectively, amplitude and rate constant of the observed fluorescence change. Data were analysed using the Biokine software and values of half-life time (t½) correspond to ln 2/k. (Table 3).
# [5] = Rat oral pharmacokinetics; conditions: in vivo, 5 mg/kg, 5 mpk
# Rat IV pharmacokinetics = conditions: in vivo, 1 mg/kg, 1 mpk, read-out: Rat IV PK t½ (converted)
SMILES,IC50 (isolated wild type TTR) [µM],IC50 [1] [µM],% Aggregation (Turbidity method) [2],% Aggregation (Fluorescence method) [3],T 1/2 [4] [s],Cmax [5] [ng/mL],half-life (Rat IV pharmacokinetics) [h],D50 plasma [1]
"O=C(O)CCc1cc(Cl)c(OCC[C@@H](O)[C@H](O)CCOc2c(Cl)cc(-c3nc4ccc(C(=O)O)cc4o3)cc2Cl)c(Cl)c1 [Compound B16, 2-[4-[(3R,4R)-6-[4-(2-carboxyethyl)-2,6-dichloro-phenoxy]-3,4-dihydroxy-hexoxy]-3,5-dichloro-phenyl]-1,3-benzoxazole-6-carboxylic acid]",0.09,14.1,4.42 (1.45) %,4.76 (3.13) %,1.415,,,
"O=C(O)CCc1cc(Cl)c(OCCCOCCOc2c(Cl)cc(Nc3ccnnc3C(=O)O)cc2Cl)c(Cl)c1 [Compound B25, 4-[4-[2-[3-[4-(2-carboxyethyl)-2,6-dichloro-phenoxy]propoxy]ethoxy]-3,5-dichloro-anilino]pyridazine-3-carboxylic acid]",0.07,3.2,3.96 (1.04) %,8.96 (7.24) %,,217,6.97,
"Cc1n[nH]c(COCCCOCCCOc2c(Cl)cc(CCC(=O)O)cc2Cl)c1CCCOc1cc(C(=O)O)ccc1F [Compound B9, 3-[3-[5-[3-[3-[4-(2-carboxyethyl)-2,6-dichloro-phenoxy]propoxy]propoxymethyl]-3-methyl-1H-pyrazol-4-yl]propoxy]-4-fluorobenzoic acid]",1.35,,17.1 (0.66) %,9.34 (4.36) %,,,,no binding
"O=C(O)CCc1cc(Cl)c(OCC[C@@H](O)[C@H](O)CCOc2ccc(Nc3ccccc3C(=O)O)cc2Cl)c(Cl)c1 [Compound B20, 2-[4-[(3R,4R)-6-[4-(2-carboxyethyl)-2,6-dichloro-phenoxy]-3,4-dihydroxy-hexoxy]-3-chloro-anilino]benzoic acid]",0.07,7,11.6 (8.30) %,8.54 (6.10) %,,,,
"O=C(O)CCOCCCOCCCOCCCOc1c(Cl)cc(Nc2ccccc2C(=O)O)cc1Cl [Compound B6, 2-[4-[3-[3-[3-(2-carboxyethoxy)propoxy]propoxy]propoxy]-3,5-dichloro-anilino]benzoic acid]",1.17,39.7,6.24 (1.71) %,12.0 (4.44) %,,,,
"O=C(O)CCc1cc(Cl)c(OCCCOCCCOc2c(Cl)cc(-c3nc4ccc(C(=O)O)cc4o3)cc2Cl)c(Cl)c1 [Compound B7, 2-[4-[3-[3-[4-(2-carboxyethyl)-2,6-dichloro-phenoxy]propoxy]propoxy]-3,5-dichloro-phenyl]-1,3-benzoxazole-6-carboxylicacid]",0.1,18.4,4.99 (1.88) %,8.23 (2.61) %,,,,
"O=C(O)CCc1cc(Cl)c(OCOCCCOc2c(Cl)cc(Nc3ccccc3C(=O)O)cc2Cl)c(Cl)c1 [Compound B8, 2-[4-[3-[[4-(2-carboxyethyl)-2,6-dichloro-phenoxy]methoxy]propoxy]-3,5-dichloro-anilino]benzoic acid]",2.06,,6.35 (2.73) %,11.7 (3.67) %,,,,no binding
"O=C(O)CCc1cc(Cl)c(OCCCOCCOc2c(Cl)cc(Nc3cnccc3C(=O)O)cc2Cl)c(Cl)c1 [Compound B26, 3-[4-[2-[3-[4-(2-carboxyethyl)-2,6-dichloro-phenoxy]propoxy]ethoxy]-3,5-dichloro-anilino]pyridine-4-carboxylic acid]",0.09,1.4,3.93 (1.73) %,4.62 (2.37) %,,1450,5.5,
"O=C(O)COCCOCCOCCOc1c(Cl)cc(Nc2ccccc2C(=O)O)cc1Cl [Compound B5, 2-[4-[2-[2-[2-(carboxymethoxy)ethoxy]ethoxy]ethoxy]-3,5-dichloro-anilino]benzoic acid]",4.6,66.4,17.3 (14.8) %,28.8 (13.4) %,,,,
"O=C(O)CCc1cc(Cl)c(OCC[C@H](O)[C@@H](O)CCOc2c(Cl)cc(Nc3ccccc3C(=O)O)cc2Cl)c(Cl)c1 [Compound B4, 2-[4-[(3S,4S)-6-[4-(2-carboxyethyl)-2,6-dichloro-phenoxy]-3,4-dihydroxy-hexoxy]-3,5-dichloro-anilino]benzoic acid]",0.07,4.4,3.52 (1.14) %,4.74 (2.93) %,,,,
"O=C(O)CCc1cc(Cl)c(OCCCOCCCOc2ccc(-c3nc4ccc(C(=O)O)cc4o3)cc2Cl)c(Cl)c1 [Compound B15, 2-[4-[3-[3-[4-(2-carboxyethyl)-2,6-dichloro-phenoxy]propoxy]propoxy]-3-chlorophenyl]-1,3-benzoxazole-6-carboxylic acid]",0.1,61,5.56 (0.75) %,12.7 (5.73) %,,,,
"O=C(O)CCc1cc(Cl)c(OCC[C@@H](O)[C@H](O)CCOc2c(Cl)cc(Nc3ccccc3C(=O)O)cc2Cl)c(Cl)c1 [Compound B4A, 2-[4-[(3R,4R)-6-[4-(2-carboxyethyl)-2,6-dichloro-phenoxy]-3,4-dihydroxy-hexoxy]-3,5-dichloro-anilino]benzoicacid]",0.066,2.3,4.99 (0.46) %,3.30 (1.19) %,,,,
"O=C(O)CCc1cc(Cl)c(OCCOCCCCOc2c(Cl)cc(Nc3ccccc3C(=O)O)cc2Cl)c(Cl)c1 [Compound B2, 2-[4-[4-[2-[4-(2-carboxyethyl)-2,6-dichloro-phenoxy]ethoxy]butoxy]-3,5-dichloro-anilino]benzoic acid]",0.1,2.59,5.25 (1.68) %,4.36 (1.51) %,,,,
